Legend:
[1] = food pH 5.4; cited from earlier work
[2] = tested on: bacteria, mold, and yeast; experiment: Carbon dioxide production of tortillas from treated dough; details: antimicrobial added to propionic/phosphoric acid preparation
Text: In the laboratory, shelf life of varying formulations of tortillas can be compared by monitoring the output of carbon dioxide produced by the bacteria, mold, and yeast.
Tortillas were then manufactured from the treated dough.

SMILES | acid undissociated [1] [%] | effectiveness in controlling fermented odor / preventing spoilage [2]
O=C(O)c1ccccc1 [benzoic acid] | 7.75 | best qualities for preventing spoilage
CCC(=O)O [propionic acid] | 20 | –
